According to ChEMBL document CHEMBL3097994, “Simplified captopril analogues as NDM-1 inhibitors” (Bioorg Med Chem Lett, 2014):
Active and inactive are the calls of the source. The rule behind the calls is not given here.

Tests used:
[1] = Inhibition of NDM-1 (unknown origin) using imipenem as substrate by spectrophotometric analysis
[2] = Inhibition of NDM-1 (unknown origin) using imipenem as substrate at 1 mM by spectrophotometric analysis
[3] = Inhibition of NDM-1 (unknown origin)

SMILES	IC50 [1] [µM]	also measured
CONC(=O)[C@@H](C)CS	92	–
CC(CS)C(=O)Nc1nccs1 (stereo not drawn)	> 200	–
CNc1ccccc1NC(=O)C(C)CS (stereo not drawn)	–	inhibition [2]: inactive
CON(C)C(=O)[C@H](C)CS	20	–
CC(CS)C(=O)O (racemic)	56	–
CC(CS)C(=O)Nc1ncc(Br)s1 (stereo not drawn)	52	–
C[C@H](CS)C(=O)O	81	–
C[C@@H](CS)C(=O)O	53	–
CONC(=O)[C@H](C)CS	55	–
COc1ccc(CONC(=O)C(C)CS)cc1 (stereo not drawn)	> 200	–
CC(CO)CS (stereo not drawn)	15	–
CON(C)C(=O)[C@@H](C)CS	48	–
CC(CS)C(=O)N1CCOCC1 (stereo not drawn)	–	inhibition [2]: inactive
COC(=O)C(C)CS (stereo not drawn)	–	inhibition [2]: inactive
C[C@H](CS)C(=O)N1CCC[C@H]1C(=O)O [CAPTOPRIL]	–	IC50 [3]: 39 µM
OCC(S)CS (stereo not drawn) [DIMERCAPROL]	10.4	–

Now from value to compound, other results behind:

IC50 [1] [µM]	SMILES	also measured
> 200	Cc1ccccc1CNC(=O)[C@H](C)CS	–
20	CCCCNC(=O)C(C)CS (stereo not drawn)	–
21	Cc1coc(NC(=O)C(C)CS)n1 (stereo not drawn)	–
> 200	CC(CS)C(=O)Nc1ccc(F)cc1 (stereo not drawn)	–
> 200	CC(CS)C(=O)NCCc1cccs1 (stereo not drawn)	–
120	C[C@H](CS)C(=O)NCCS(C)(=O)=O	–
> 200	CC(CS)C(=O)Nc1cccc(F)c1 (stereo not drawn)	–
> 200	CC(CS)C(=O)NCc1ccc(F)cc1 (stereo not drawn)	–
5	C[C@H](CS)C(=O)NCc1ccccc1	–
> 200	C[C@H](CS)C(=O)NCc1ccc(O)cc1	–
5	C[C@H](CS)C(=O)NCc1ccccc1O	–
1.5	C[C@@H](CS)C(=O)NCc1ccccc1	–
135	CC(CS)C(=O)Nc1ccccc1 (stereo not drawn)	–
> 200	CC(CS)C(=O)NCc1ccco1 (stereo not drawn)	–
> 200	CC(CS)C(=O)NCCc1ccccc1 (stereo not drawn)	–
13	CSCCNC(=O)[C@H](C)CS	–
> 200	CC(CS)C(=O)Nc1ncc[nH]1 (stereo not drawn)	–
